Assay results published in US8623595B2, “Inactivation of reverse transcriptases by azido-diarylpyrimidines” (Photoimmune Biotechnology Inc., priority 2010, dated 2014).
Where two headings read alike, the source gives them in different places.

System: HIV-1
Conditions: for time within which capacity to inactivate HIV-1 reverse transcriptase was lost / permanence of HIV-1 reverse transcriptase inactivation: 10 nM compound, HIV-1 in MT-2 cells
Description: MT-2 cells were contacted with HIV-1 TCID50, and 0, 2, 10, 20, or 50 nM of either DAPY (TMC120-R147681) or azido-DAPY were placed on 50μ/well plates. The plates were placed on ice for 20 minutes and then irradiated at 7.5 cm from a UV light source (UVP lamp model UVGL-25) that provides UV light at a wavelength of 365 nm and an intensity of 1.14 W/cm^2 for a period of 20 minutes. Studies of HIV-1 infected MT-2 cells contacted with DAPY but not UV irradiated, and HIV-1 infected MT-2 cells that were irradiated but not contacted with DAPY or azido-DAPY were also performed.
The inactivation of HIV was evaluated by a reverse transcriptase activity assay as described by Xu et al. (2009). The measurements are provided in counts per minute (cpm).

Question: Which results are given for `Cc1cc(C)c(Nc2ccnc(Nc3ccc(C#N)cc3)n2)c(C)c1` [DAPY, dapivirine]?
Answer: time within which capacity to inactivate HIV-1 reverse transcriptase was lost (with UV light treatment): ≤ 16 days; permanence of HIV-1 reverse transcriptase inactivation (with UV light): inability to produce a permanent inactivation; time within which capacity to inactivate HIV-1 reverse transcriptase was lost (without UV light treatment): ≤ 16 days; permanence of HIV-1 reverse transcriptase inactivation (without UV light): inability to produce a permanent inactivation; inactivation of HIV-1 in time-exposure studies (compound + UV light exposure, time-exposure studies): not observed
